Reference: patent US20260014109A1, “VERY LONG CHAIN FATTY ACIDS FOR TREATMENT AND ALLEVIATION OF DISEASES” (EPAX NORWAY AS, priority 2019, published 2026)

Columns and labels:
[1] = system: human dermal fibroblast cell line (ATCC PCS-201-012); assay: Scratch assay (in-vitro wound healing model) in human dermal fibroblasts (Example 5); type: cell-based; settings: 10 μM, after 24 hours, control albumin in PBS
Procedure: (§1) A commercial human dermal fibroblast cell line (ATCC PCS-201-012) was cultured in Dulbecco's modified Eagle's medium according to the method described by Vuong et al2.
ATCC cells were seeded in wells with 2 mL culture media supplemented with 1, 2 and 4 μM Lipid composition A. Control was albumin in PBS. At ˜90-100% confluency, a scratch was created, and wells were thereafter photographed at several time points up to 24 hours. The migration of cells into the scratch/closure of wound over time was examined in light microscopy and images were taken. The scratch/wound closure rate was measured by % confluency in scratch opening (the higher values the better closure of wound).
Cells were seeded in wells with 2 mL culture media supplemented with 10 μM Lipid composition B (6 replicates). Control was albumin in PBS. At ˜90-100% confluency, a scratch was created, and wells were thereafter photographed at several time points up to 24 hours. […]
FIG. 29 provides the effect of Lipid composition B on closure rate of scratch. […] Cells were then scratched and cell migration into wound was followed at different time points (0 and 24 hours shown), using Fiji/ImageJ software, as illustrated in figure A. Scratch size was analyzed as mean percentage decline (calculated from each well's original size at 0 hours to size measured at 24 hours (n=6, results presented in figure B).

ATCC human skin cells = assay: Content of C26:6n-3 in ATCC human skin cells after supplementation of the culture medium (Example 5, 1B); type: cell-based; settings: media with 10 and 20 μM for 4 days; increase from 0.7; p=0.001 (ANOVA)
Procedure: as §1
ATCC cells were cultivated in a media supplemented with 10 and 20 μM Lipid composition B for 4 days before harvesting for determination of fatty acid composition. It was made a pooled sample of three replicates per group prior to lipid extraction by the method by Folch et al1.

ATCC cells = assay: Proliferation assay in ATCC human dermal fibroblasts (Example 5); type: cell-based; settings: incubation until about 50% confluency, albumin controls
Procedure: as §1
The proliferation assay measures the density/number of cells in culture by fluorescence staining of nucleic acids.
FIG. 28 provides the measurement of cell proliferation after incubation with Lipid composition B until about 50% confluency. Results are presented as the mean±SEM (n=4). The asterisks (*) indicate significant difference between groups. Control 1 and 2 represent albumin equivalent to the albumin concentration in the 20 µM Lipid composition B substrate.

[2] = system: skin cells (keratocytes) from salmon shells; assay: Cellular content of C26:6n-3 in primary skin cells (keratocytes) from Atlantic salmon (Example 5, 2); type: cell-based; settings: 20 µM group; 0% in the control group
Procedure: Primary cell cultures of skin cells (keratocytes) from salmon shells were isolated from freshwater Atlantic salmon. The shells were carefully placed in plate wells and incubated at 13° C. in growth media (L-15) supplemented with 10 μM or 20 μM of the Lipid composition B (26:6n-3) or 25 ng/ml fibroblast growth factor (FGF) as a positive control. Negative control was albumin in PBS.

[3] = system: skin cells (keratocytes) from salmon shells; assay: Cell migration from salmon shells (Example 5, 2); type: cell-based, Atlantic salmon; parameters: cell migration from salmon shells, first time point: dose or concentration left out as unconfirmed
Procedure: Primary cell cultures of skin cells (keratocytes) from salmon shells were isolated from freshwater Atlantic salmon. […] Negative control was albumin in PBS.
The second day after isolation of shells, all wells with the different treatments were inspected under microscope and images taken.
Salmon shells were plucked from freshwater salmon and placed in wells with culture medium, incubated at 13° C. without CO2 and inspected for cell migration the following days. […] Control was albumin in PBS. (n=6). The scale of the y—axis represents no cell migration (0%) to cell migration from all shells (100%). Different letters denote significant differences (p≤0,05).

content of C26:6n-3 in ATCC human skin cells (ATCC human skin cells): 5.5 % of total FAs
cellular content of the C26:6n-3 fatty acid in salmon skin cells [2]: 1.4%
Structure (SMILES): CC/C=C\C/C=C\C/C=C\C/C=C\C/C=C\C/C=C\CCCCCCC(=O)O [Lipid composition B, C26:6n-3]
wound closure rate by reduced size of wound diameter compared to control [1]: tendencies to increased wound closure rate
cell count (proliferation) compared to controls (ATCC cells): significantly higher cell count
cell migration in salmon skin cell culture relative to control ([3]; 10 µM): significantly increased cell migration
cell migration from salmon shells, last time point ([3]; low dose (10 µM)): most effect on cell migration
cell migration from salmon shells, first time point ([3]; relative to albumin control): similar, immediate increased cell migration effect as the FGF
